The target in this experiment is T1, human PAD4 (Homo sapiens, UniProt Q9UM07).
T1 construct: human PAD4 (NM_012387), A2-P663, was PCR amplified; His-SUMO (N, cleaved yes); made in house; host or cells: E. coli BL21(DE3)
In words: In vitro PAD4 BAEE biochemical assay. The note with it: BAEE substrate 3 mM, 5 nM PAD4, 2 mM calcium chloride; geometric mean of multiple experiments. Summed up: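 Recombinant human PAD4 (5 nM final) with 2 mM CaCl2 was preincubated with compound 30 min at 25 °C in MOPS buffer pH 7.6, then reacted with 3 mM BAEE for 2 h at 25 °C. After EDTA stop, released ammonia was detected by o-phthalaldehyde/DTT fluorescence (ex 405/em 535 nm); IC50 from four-parameter fit, geometric mean.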

T1 sequence (Q9UM07 2-663): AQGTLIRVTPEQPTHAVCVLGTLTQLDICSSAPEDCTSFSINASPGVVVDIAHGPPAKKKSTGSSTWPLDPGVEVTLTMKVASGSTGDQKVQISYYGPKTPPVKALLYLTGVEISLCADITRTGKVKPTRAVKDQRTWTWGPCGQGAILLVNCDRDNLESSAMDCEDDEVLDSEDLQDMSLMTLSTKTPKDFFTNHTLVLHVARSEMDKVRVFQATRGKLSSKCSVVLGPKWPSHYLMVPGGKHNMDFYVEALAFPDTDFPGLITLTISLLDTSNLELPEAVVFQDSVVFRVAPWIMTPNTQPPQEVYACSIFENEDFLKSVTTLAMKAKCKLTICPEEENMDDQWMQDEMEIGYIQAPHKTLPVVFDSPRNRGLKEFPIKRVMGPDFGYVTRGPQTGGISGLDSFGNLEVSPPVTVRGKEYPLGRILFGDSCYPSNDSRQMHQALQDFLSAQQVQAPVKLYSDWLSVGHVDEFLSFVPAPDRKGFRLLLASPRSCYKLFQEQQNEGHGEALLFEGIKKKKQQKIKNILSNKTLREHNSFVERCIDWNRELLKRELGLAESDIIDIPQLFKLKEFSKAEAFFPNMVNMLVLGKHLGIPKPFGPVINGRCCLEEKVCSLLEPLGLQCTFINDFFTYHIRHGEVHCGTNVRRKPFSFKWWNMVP

In general, IC50 refers to the concentration that gives 50% inhibition. `CO[C@@H]1CCN(C(=O)c2cc(Cl)c3c(c2)nc(-c2cc4ccc5nc4n2CCCCC[C@@H]2CC2C(=O)N[C@@H]5C)n3C)C[C@@H]1N` (stereo partly shown) [Example 505, (2~{R},7~{R})-14-[5-[(3~{S},4~{R})-3-amino-4-methoxy-piperidine-1-carbonyl]-7-chloro-1-methyl-benzimidazol-2-yl]-2-methyl-3,13,19-triazatetracyclo[11.5.2.0^ {5,7}.0^{16,20}]icosa-1(19),14,16(20),17-tetraen-4-one]: the IC50 is 97 nM.
As for `COc1cc(C(=O)N2CC[C@H]3CCCN[C@H]3C2)cc2nc(-c3cc4ccc5nc4n3CCCCCCC(C)(C)C(=O)N[C@@H]5C)n(C)c12` (single isomer, unassigned) [Example 261, (11˜{R})-17-[5-[(4˜{a}˜{R},8˜{a}˜{R})-2,3,4,4˜{a},5,6,8,8˜{a}-octahydro-1˜{H}-1,7-naphthyridine-7-carbonyl]-7-methoxy-1-methyl-benzimidazol-2-yl]-8,8,11-trimethyl-1,10,19-triazatricyclo[10.5.2.0^{15,18}]nonadeca-12(19),13,15(18),16-tetraen-9-one], the figure is 106 nM.
As for `COc1cc(C(=O)N2[C@H]3CC[C@@H]2[C@H](N)C3)cc2nc(-c3cc4ccc5nc4n3CCCCN(C)C(=O)N[C@@H]5C)c(C)n12` [Example 209, (9˜{R})-15-[7-[(1˜{R},2˜{R},4˜{S})-2-amino-7-azabicyclo[2.2.1]heptane-7-carbonyl]-5-methoxy-3-methyl-imidazo[1,2-a]pyridin-2-yl]-6,9-dimethyl-1,6,8,17-tetrazatricyclo[8.5.2.0^{13,16}]heptadeca-10(17),11,13(16),14-tetraen-7-one], the figure is 74 nM; as for `COc1cc(C(=O)N2CC[C@@H](OC)[C@@H](N)C2)cc2nc(-c3cc4ccc5c(F)c4n3CC(F)(F)CCC[C@@H]3C[C@H]3C(=O)N[C@@H]5C)n(C)c12` [Example 648, (2~{R},5~{R},7~{R})-14-[5-[(3~{S},4~{R})-3-amino-4-methoxy-piperidine-1-carbonyl]-7-methoxy-1-methyl-benzimidazol-2-yl]-11,11,19-trifluoro-2-methyl-3,13-diazatetracyclo[11.5.2.0^ {5,7}.0^{16,20}] icosa-1(19),14,16(20), 17-tetraen-4-one], 41 nM; as for `COc1cc(C(=O)N2C[C@H]3CC[C@@H]2[C@@H]3N)cc2nc(-c3cc4ccc5nc4n3CC(F)(F)CCC[C@@H]3C[C@H]3C(=O)N[C@@H]5C)n(C)c12` [Example 853, (2~{R},5~{R},7~{R})-14-[5-[(1~{R},4~{R},7~{R})-7-amino-2-azabicyclo[2.2.1]heptane-2-carbonyl]-7-methoxy-1-methyl-benzimidazol-2-yl]-11,11-difluoro-2-methyl-3,13,19-triazatetracyclo[11.5.2.0^ {5,7}.0^{16,20}]icosa-1(19), 14,16(20),17-tetraen-4-one], 48 nM.
For the molecule `COc1cc(C(=O)N2[C@H]3CC[C@@H]2[C@H](N)C3)cc2nc(-c3cc4ccc5nc4n3CCCCCCCC(=O)NC5)n(C)c12` [Example 255, 17-[5-[(1~{R},2~{R},4~{S})-2-amino-7-azabicyclo[2.2.1]heptane-7-carbonyl]-7-methoxy-1-methyl-benzimidazol-2-yl]-1,10,19-triazatricyclo[10.5.2.0^{15,18}]nonadeca-12(19),13,15(18),16-tetraen-9-one], the IC50 worked out at 59 nM.
Next, `COc1cc(C(=O)N2CC[C@@H](OC)[C@@H](N)C2)cc2nc(-c3cc4ccc5c(F)c4n3CCCCCCC(C)(C)C(=O)N[C@@H]5C)n(C)c12` [Example 643, (11~{R})-17-[5-[(3~{S}, 4~{R})-3-amino-4-methoxy-piperidine-1-carbonyl]-7-methoxy-1-methyl-benzimidazol-2-yl]-19-fluoro-8,8,11-trimethyl-1,10-diazatricyclo[10.5.2.0^ {15,18}]nonadeca-12(19),13,15(18),16-tetraen-9-one]: 54 nM.
